Numbering of substitutions follows the chain as printed.

The target in assay [1] is T1, human androgen receptor (hAR) (Homo sapiens, UniProt P10275).
T1 construct: made in house; host or cells: baculovirus/Sf9 insect cells (crude extract)
T1 sequence (P10275 1-920): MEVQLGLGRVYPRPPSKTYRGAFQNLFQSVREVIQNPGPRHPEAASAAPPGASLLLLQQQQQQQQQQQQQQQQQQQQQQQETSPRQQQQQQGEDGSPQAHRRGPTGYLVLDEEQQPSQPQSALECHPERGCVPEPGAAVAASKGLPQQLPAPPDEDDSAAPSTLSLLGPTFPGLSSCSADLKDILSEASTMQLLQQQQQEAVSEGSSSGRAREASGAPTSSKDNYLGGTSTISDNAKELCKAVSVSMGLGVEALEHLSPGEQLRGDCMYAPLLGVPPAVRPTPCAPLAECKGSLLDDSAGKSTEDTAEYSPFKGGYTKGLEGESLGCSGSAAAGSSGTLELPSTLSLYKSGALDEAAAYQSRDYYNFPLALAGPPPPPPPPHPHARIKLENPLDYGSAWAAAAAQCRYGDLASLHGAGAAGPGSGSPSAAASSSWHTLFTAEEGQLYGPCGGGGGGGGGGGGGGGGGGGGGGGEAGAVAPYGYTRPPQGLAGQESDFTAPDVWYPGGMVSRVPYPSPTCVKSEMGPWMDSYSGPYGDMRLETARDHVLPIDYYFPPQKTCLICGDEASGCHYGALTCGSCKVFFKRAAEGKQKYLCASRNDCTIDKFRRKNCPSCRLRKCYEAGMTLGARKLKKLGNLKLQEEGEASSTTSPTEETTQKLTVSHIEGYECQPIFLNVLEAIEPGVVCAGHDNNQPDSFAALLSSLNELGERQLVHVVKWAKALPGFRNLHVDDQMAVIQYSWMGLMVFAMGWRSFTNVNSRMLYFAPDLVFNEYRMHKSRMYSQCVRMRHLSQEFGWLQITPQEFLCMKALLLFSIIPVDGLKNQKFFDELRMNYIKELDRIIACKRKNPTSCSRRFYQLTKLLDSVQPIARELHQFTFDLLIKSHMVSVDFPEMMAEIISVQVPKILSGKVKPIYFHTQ
Kind of assay: Competitive binding analysis on baculovirus/Sf9 generated hAR extracts with 3H-DHT tracer. To be noted: hAR extract, 1 nM 3H-DHT, one hour at 4° C; mean of multiple tests; read-out: AR Binding IC50. The protocol:
The compounds of Formula I have affinity for the androgen receptor. […] The description below describes how the assay was carried out.
Competitive binding analysis was performed on baculovirus/Sf9 generated hAR extracts in the presence or absence of different concentrations of test agent and a fixed concentration of ^3H-dihydrotestosterone (^3H-DHT) as tracer. This binding assay method is a modification of a protocol previously described (Liao S., et. al. J. Steroid Biochem. 20:11-17 1984). Briefly, progressively decreasing concentrations of compounds are incubated in the presence of hAR extract (Chang et al. P.N.A.S. Vol. 89, pp. […], 1992), hydroxylapatite, and 1 nM^3H-DHT for one hour at 4° C. Subsequently, the binding reactions are washed three times to completely remove excess unbound ^3H-DHT. hAR bound ^3H-DHT levels are determined in the presence of compounds (=i.e competitive binding) and compared to levels bound when no competitor is present (=i.e. maximum binding). Compound binding affinity to the hAR is expressed as the concentration of compound at which one half of the maximum binding is inhibited. Table II below provides the results that were obtained for selected compounds (reported data is the mean of multiple tests as shown below)

Another assay addresses T2, androgen receptor (Homo sapiens, UniProt P10275).
T2 sequence (P10275 1-920 Q868H): T1 sequence (P10275 1-920) with Q868H
Kind of assay: AR antagonist cell assay (MDA-MB453-MMTV clone 54-19 luciferase reporter, 100 pM DHT). In kind it is cell-based. To be noted: MDA-MB453-MMTV clone 54-19, inhibition of 100 pM DHT induction, 17 hr; mean of multiple tests; read-out: AR Cell IC50. On the procedure:
The compounds ability to antagonize the effects of androgen on the androgen receptor were determined in a whole cell assay as described immediately below.
Experimental Procedure for AR Antagonist Cell Assay
This cell line is a stable transfected cell line with MDA-MB453 cell background (a human breast tumor cell line expressing androgen receptor). A MMTV minimal promoter containing ARE was first cloned in front of a firefly luciferase reporter gene. Then the cascade was cloned into transfection vector pUV120puro. […] Puromycin resistant stable cell line was selected. Cell Culture Media and Reagents:
Plating medium: DMEM (phenol red free), 10% charcoal treated HyClone serum, 1% L-glutamine
Assay medium: DMEM (phenol red free), 1% charcoal treated HyClone serum, 1% L-glutamine, and 1% penicillin/streptomycin
• 1. Cells are maintained in culture medium, splitting cells when they reach 80-90% confluence • 2. To test compounds, 10,000 cells/well are plated to opaque 96 cell culture plate in 100 ul/well plating medium, culture for overnight at 37° C. in cell culture incubator • 3. […] Add 10 ul/well freshly prepared DHT (final concentration at 100 pM) to each well, incubate at 37° C. for 17 hr (overnight) • 5.
The results are reported as the mean of multiple tests as described below (the numbers of tests are indicated in the footnote). N.D. denotes that the compound was not tested.

As to `CC(C)CC(Oc1ccc(C#N)c(C(F)(F)F)c1)C(=O)NCc1cccnc1` (stereo not drawn) [Example 19, 2-(4-Cyano-3-trifluoromethyl-phenoxy)-4-methyl-pentanoic acid (pyridin-3-yl-methyl)-amide], the IC50 in assay [1] was 131 nM; at androgen receptor, above 1000 nM.
Taken in the same sequence, the figures for `CC(C)CCNC(=O)C(CC(C)C)Oc1ccc(C#N)c(C(F)(F)F)c1` (stereo not drawn) [Example 22, 2-(4-Cyano-3-trifluoromethyl-phenoxy)-4-methyl-pentanoic acid (3-methyl-butyl)amide] were 178 nM and above 1000 nM.
With `CC(C)CC(Oc1ccc(C#N)c(C(F)(F)F)c1)C(=O)NCc1ccc2c(c1)OCO2` (stereo not drawn) [Example 24, 2-(4-Cyano-3-trifluoromethyl-phenoxy)-4-methyl-pentanoic acid (benzo[1,3]dioxol-5-yl-methyl)-amide], the IC50 in assay [1] amounted to 56 nM; at androgen receptor, 799 nM.
For `CC(C)CC(Oc1ccc(C#N)c(C(F)(F)F)c1)C(=O)NCc1ccc2c(c1)CCO2` (stereo not drawn) [Example 25, 2-(4-Cyano-3-trifluoromethyl-phenoxy)-4-methyl-pentanoic acid (2,3-dihydro-benzofuran-5-yl-methyl)-amide], in that order: 67 nM and 798 nM.
For `CC(C)CC(Oc1ccc(C#N)c(C(F)(F)F)c1)C(=O)NCc1ccc2nsnc2c1` (stereo not drawn) [Example 26, 2-(4-Cyano-3-trifluoromethyl-phenoxy)-4-methyl-pentanoic acid (benzo[1,2,5]thiadiazol-5-yl-methyl)-amide], in that order: 67 nM and above 1000 nM.
Taken in the same sequence, the figures for `CCCC(Oc1ccc(C#N)c(C(F)(F)F)c1)C(=O)NCc1ccc2c(c1)OCO2` (stereo not drawn) [Example 29, 2-(4-Cyano-3-trifluoromethyl-phenoxy)-pentanoic acid (benzo[1,3]dioxol-5-yl-methyl)-amide] were 180 nM and above 1000 nM.
With `CCCC(Oc1ccc(C#N)c(C(F)(F)F)c1)C(=O)NCc1ccc2c(c1)CCO2` (stereo not drawn) [Example 30, 2-(4-Cyano-3-trifluoromethyl-phenoxy)-pentanoic acid (2,3-dihydro-benzofuran-5-yl-methyl)-amide], the values for the IC50 (in assay [1]; at androgen receptor) were 134 nM and 355 nM, respectively.
Regarding `CCCC(Oc1ccc(C#N)c(C(F)(F)F)c1)C(=O)NCc1ccc2nsnc2c1` (stereo not drawn) [Example 31, 2-(4-Cyano-3-trifluoromethyl-phenoxy)-pentanoic acid (benzo[1,2,5]thiadiazo-5-yl-methyl)-amide], the IC50 in assay [1] was 83 nM; at androgen receptor it was above 1000 nM.
For `COc1cccc(CNC(=O)C(CC(C)C)Oc2ccc(C#N)c(C(F)(F)F)c2)c1` (stereo not drawn) [Example 33, 2-(4-Cyano-3-trifluoromethyl-phenoxy)-4-methyl-pentanoic acid-3-methoxy-benzylamide], in that order: 62 nM and 864 nM.
Consider `COc1ccc(CCNC(=O)C(CC(C)C)Oc2ccc(C#N)c(C(F)(F)F)c2)cc1` (stereo not drawn) [Example 34, 2-(4-Cyano-3-trifluoromethyl-phenoxy)-4-methyl-pentanoic acid [2-(4-methoxyphenyl)-ethyl]amide], for which the IC50 in assay [1] was 68 nM; on androgen receptor, above 1000 nM.
Taken in the same sequence, the figures for `COc1ccccc1CNC(=O)C(CC(C)C)Oc1ccc(C#N)c(C(F)(F)F)c1` (stereo not drawn) [Example 35, 2-(4-Cyano-3-trifluoromethyl-phenoxy)-4-methyl-pentanoic acid-2-methoxy-benzylamide] were 77 nM and 768 nM.
In the case of `CCOc1ccccc1CNC(=O)C(CC(C)C)Oc1ccc(C#N)c(C(F)(F)F)c1` (stereo not drawn) [Example 36, 2-(4-Cyano-3-trifluoromethyl-phenoxy)-4-methyl-pentanoic acid-2-ethoxy-benzylamide], the values for the IC50 (in assay [1]; on androgen receptor) were 42 nM and above 1000 nM, respectively.
Taken in the same sequence, the figures for `Cc1cccc(CNC(=O)C(CC(C)C)Oc2ccc(C#N)c(C(F)(F)F)c2)c1` (stereo not drawn) [Example 37, 2-(4-Cyano-3-trifluoromethyl-phenoxy)-4-methyl-pentanoic acid-3-methyl-benzylamide] were 41 nM and above 1000 nM.
On to `Cc1ccccc1CNC(=O)C(CC(C)C)Oc1ccc(C#N)c(C(F)(F)F)c1` (stereo not drawn) [Example 38, 2-(4-Cyano-3-trifluoromethyl-phenoxy)-4-methyl-pentanoic acid-2-methyl-benzylamide], for which the IC50 was 15 nM in assay [1] and above 1000 nM on androgen receptor.
As to `COc1ccc(CNC(=O)C(CC(C)C)Oc2ccc(C#N)c(C(F)(F)F)c2)cc1` (stereo not drawn) [Example 39, 2-(4-Cyano-3-trifluoromethyl-phenoxy)-4-methyl-pentanoic acid-4-methoxy-benzylamide], the figures for the IC50 (in assay [1]; at androgen receptor) were 42 nM and above 1000 nM, respectively.
As to `CCCC(Oc1ccc(C#N)c(C(F)(F)F)c1)C(=O)NCc1ccccc1OC` (stereo not drawn) [Example 41, 2-(4-Cyano-3-trifluoromethyl-phenoxy)-pentanoic acid-2-methoxy-benzylamide], the IC50 stood at 171 nM in assay [1] and 130 nM on androgen receptor.
Consider `CCCC(Oc1ccc(C#N)c(C(F)(F)F)c1)C(=O)NCc1ccccc1OCC` (stereo not drawn) [Example 42, 2-(4-Cyano-3-trifluoromethyl-phenoxy)-pentanoic acid-2-ethoxy-benzylamide], for which the 50% inhibitory concentration (IC50) in assay [1] was 139 nM; on androgen receptor, above 1000 nM.
Take `CCCC(Oc1ccc(C#N)c(C(F)(F)F)c1)C(=O)NCc1cccc(C)c1` (stereo not drawn) [Example 43, 2-(4-Cyano-3-trifluoromethyl-phenoxy)-pentanoic acid-3-methyl-benzylamide]: the IC50 was 99 nM in assay [1] and 105 nM at androgen receptor.

For orientation: IC50 means the concentration at which inhibition is half-maximal.

Values taken from patent US7507860B2 (Pfizer Inc., priority 2004, dated 2009).
